Assay results: patent US11672868B2, “Bicyclic peptide ligands specific for MT1-MMP” (priority 2014, dated 2023)
Read-outs that look alike come from different tables or passages of the source. Numbered stars: 1 amine (or outer) side, 2 acyl side, 3 side chain; on linkers, the order of the positions; unused ones are H or OH. Bridge positions count the residues as written; N and C are the ends. Square brackets hold non-standard residues; d marks the D form. Peptide text beside a SMILES is read from it. I, II: the chains in the order shown. * marks the point of attachment. Dolaproine = CO[C@@H]([C@@H]1CCCN1)[C@@H](C)C(=O)O; Dil = CC[C@H](C)[C@H](NC)[C@@H](CC(=O)O)OC; Phe(4-Br) = N[C@@H](Cc1ccc(Br)cc1)C(=O)O; 1Nal = N[C@@H](Cc1cccc2ccccc12)C(=O)O; TBMB = c1c(C[*:1])cc(C[*:3])cc1C[*:2]; PABC = O=C(OCc1ccc(N[*:1])cc1)[*:2]; Glutaryl = O=C(CCCC(=O)[*:2])[*:1]; X4 = C[C@@H](N*)[C@@H](O)c1ccccc1; Cit = NC(=O)NCCC[C@H](N)C(=O)O; Tle = CC(C)(C)[C@H](N)C(=O)O; NMeV = CN[C@H](C(=O)O)C(C)C; Sar = CNCC(=O)O

Tests used:
[1] = Plasma stability, quantitative LC-MS (Method #2); format: in vitro ADME, human; settings: human, human plasma, 37° C.; sentence prints mouse plasma; read-out: half-life of the peptide in plasma (FIG. 3B, human plasma stability) (converted)
Experimental: […] […] Prior to LC-MS analysis, samples were defrosted, and mixed with 3 volumes (here, 120 μL) of 1:1 acetonitrile/MeOH water. The milky suspensions were centrifuged for 30 min at 13000 rpm, and peptide-containing supernatants were quantitated for doubly/triply charged species and MS/MS fragments thereof using a Waters Xevo TQ-D instrument, while using a plasma extracted standard curve of the same peptides as a reference. The half-life of degradation in plasma was used to assess the comparative stability of the molecules.

[2] = Plasma stability, quantitative LC-MS (Method #2); format: in vitro ADME, mouse; settings: ex vivo mouse plasma at 37° C., Method #2 (FIG. 1, FIG. 3A); read-out: half-life of the peptide in mouse plasma (converted)
Experimental: To obtain plasma stability of bicyclic peptides quantitatively, peptide stock solutions (200 μM in DMSO) were mixed with plasma (human or mouse), such that final concentrations were 10 μM. 40 μL samples were taken periodically up to 8 hrs and frozen at −80° C. Prior to LC-MS analysis, samples were defrosted, and mixed with 3 volumes (here, 120 μL) of 1:1 acetonitrile/MeOH water. The milky suspensions were centrifuged for 30 min at 13000 rpm, and peptide-containing supernatants were quantitated for doubly/triply charged species and MS/MS fragments thereof using a Waters Xevo TQ-D instrument, while using a plasma extracted standard curve of the same peptides as a reference. The half-life of degradation in plasma was used to assess the comparative stability of the molecules.

[3] = test system: HT-1080 xenograft tumours; test: Efficacy in HT-1080 xenograft mice; format: in vivo, mouse; settings: HT1080 xenograft
Experimental: Balb/c nude mice bearing subcutaneous HT-1080 xenograft tumours were treated with BDCs or vehicle (PBS). BDCs were dosed 3 times weekly for 2 weeks, dosing initiated when tumours measured approx. 150-200 mm^3. Mice were monitored, and measurements of tumour volume and body weight recorded 3 times a week.

Compound | half-life at 10 μM [1] [h] | half-life at 10 μM [2] [h] | weight of the animals during treatment [3]
C[C@H](NC(=O)CN(C)C(=O)CN(C)C(=O)CN(C)C(=O)CN(C)C(=O)CN(C)C(=O)CN(C)C(=O)CN(C)C(=O)CN(C)C(=O)CN(C)C(=O)CN(C)C(=O)CN)C(=O)N[C@H]1CSCc2cc3cc(c2)CSC[C@H](NC(=O)[C@@H](C)NC(=O)[C@H](Cc2cccc4ccccc24)NC(=O)[C@H](CCC(=O)O)NC(=O)[C@H](CC(N)=O)NC(=O)[C@@H](C)NC1=O)C(=O)N[C@@H](CCC(=O)O)C(=O)N[C@@H](CC(=O)O)C(=O)N[C@@H](Cc1ccccc1)C(=O)N[C@@H](Cc1ccc(O)cc1)C(=O)N[C@@H](CC(=O)O)C(=O)N[C@@H](C(C)(C)C)C(=O)N[C@H](C(N)=O)CSC3 [17-69-07-N231, G-Sar10-A-(17-69-07) D-Ala1 1Nal4 D-Ala5 tBuGly11] (H-G[Sar][Sar][Sar][Sar][Sar][Sar][Sar][Sar][Sar][Sar]AC[dA]NE[1Nal][dA]CEDFYD[Tle]C-NH2; linker 13-19-26 via TBMB; C-terminus assumed) | > 20 | > 20 | –
C[C@H](NC(=O)CN(C)C(=O)CN(C)C(=O)CN(C)C(=O)CN(C)C(=O)CN(C)C(=O)CN(C)C(=O)CN(C)C(=O)CN(C)C(=O)CN(C)C(=O)CN(C)C(=O)CN)C(=O)N[C@H]1CSCc2cc3cc(c2)CSC[C@H](NC(=O)[C@@H](C)NC(=O)[C@H](Cc2cccc4ccccc24)NC(=O)[C@H](CCC(=O)O)NC(=O)[C@H](CC(N)=O)NC(=O)[C@@H](C)NC1=O)C(=O)N[C@@H](CCC(=O)O)C(=O)N[C@@H](CC(=O)O)C(=O)N[C@@H](Cc1ccccc1)C(=O)N[C@@H](Cc1ccc(Br)cc1)C(=O)N[C@@H](CC(=O)O)C(=O)N[C@@H](C(C)(C)C)C(=O)N[C@H](C(N)=O)CSC3 [17-69-07-N244, G-Sar10-A-(17-69-07) D-Ala1 1Nal4 D-Ala5 4BrPhe9 tBuGly11] (H-G[Sar][Sar][Sar][Sar][Sar][Sar][Sar][Sar][Sar][Sar]AC[dA]NE[1Nal][dA]CEDF[Phe(4-Br)]D[Tle]C-NH2; linker 13-19-26 via TBMB; C-terminus assumed) | > 20 | > 20 | –
CC[C@H](C)[C@@H]([C@@H](CC(=O)N1CCC[C@H]1[C@H](OC)[C@@H](C)C(=O)N[C@H](C)[C@@H](O)c1ccccc1)OC)N(C)C(=O)[C@@H](NC(=O)[C@H](C(C)C)N(C)C(=O)OCc1ccc(NC(=O)[C@H](CCCNC(N)=O)NC(=O)[C@@H](NC(=O)CCCC(=O)NCC(=O)N(C)CC(=O)N(C)CC(=O)N(C)CC(=O)N(C)CC(=O)N(C)CC(=O)N(C)CC(=O)N(C)CC(=O)N(C)CC(=O)N(C)CC(=O)N(C)CC(=O)N[C@@H](C)C(=O)N[C@H]2CSCc3cc4cc(c3)CSC[C@H](NC(=O)CNC(=O)[C@H](Cc3ccccc3)NC(=O)[C@H](CCC(=O)O)NC(=O)[C@H](CC(N)=O)NC(=O)[C@H](Cc3ccc(O)cc3)NC2=O)C(=O)N[C@@H](CCC(=O)O)C(=O)N[C@@H](CC(=O)O)C(=O)N[C@@H](Cc2ccccc2)C(=O)N[C@@H](Cc2ccc(O)cc2)C(=O)N[C@@H](CC(=O)O)C(=O)N[C@@H]([C@@H](C)CC)C(=O)N[C@H](C(N)=O)CSC4)C(C)C)cc1)C(C)C [BT17BDC-1] (I: G[Sar][Sar][Sar][Sar][Sar][Sar][Sar][Sar][Sar][Sar]ACYNEFGCEDFYDIC-NH2 / II: V[Cit][PABC][NMeV]V[Dil][Dolaproine]-X4; linker I:13-I:19-I:26 via TBMB; linker I:N-II:N via Glutaryl) | – | – | largely stable
